Measured values published in patent publication US20140308733A1, “METHOD FOR INDUCING GERMINATION OF SPORE FORMING BACTERIUM” (CALPIS CO., LTD., priority 2011, published 2014).

Tests used:
[1] = system: Bacillus amyloliquefaciens (NBRC 3022); assay: Germination induction, change of turbidity (630 nm) of spore suspension; assay type: cell-based; conditions: 300 ppm; for turbidity (630 nm): 37° C., 150 rpm; for germination confirmed by turbidity decrease: up to 180 min
Method: (§1) It is possible to determine whether spores have germinated, after measuring an OD 630 value (turbidity at 630 nm) of the liquid culture, based on decrease in the value (Literature: Microbiology, (1950), 4, 3, 330-338). Briefly, bacterial cells after culturing are washed with distilled water and diluted with distilled water to OD 630=1.0, which is then mixed with an equal volume of a germination induction solution, and the turbidity at 630 nm is measured by a UV spectrophotometer at room temperature.
(§2) TS culture media (Difco, Trypticase Soy Broth) were inoculated respectively with 11 strains listed in Table 1 and cultured at 50° C. with respect to Geobacillus stearothermophilus NBRC13737 and Aeribacillus pallidus TK6004 (FERM BP-08597), and at 37° C. with respect to the other 9 strains, until respective colonies were established. Then with respect to each of 11 strains, a loop full of a single colony was scratched by a platinum loop and suspended in 500 μL of sterilized water. In 1000 g of water was dissolved 8.0 g of a nutrient agar culture medium (Difco, Nutrient Broth), followed by high pressure steam sterilization (121° C., 15 min) to prepare a plate medium. The nutrient agar culture medium was smeared with each 100 μL of the suspension and cultured at 37° C. for 3 days.
(§3) Then, bacterial cells were suspended using a platinum loop in 500 μL of sterilized water, and the bacterial suspension was subjected to a heat shock at 65° C. for 35 min. Each 100 μL of the heat-shocked bacterial suspension and a not-heat-shocked bacterial suspension were smeared on the TS culture media respectively and cultured at 50° C. or 37° C. for 1 day. As the results of the cultures, colony formation was confirmed also with respect to the heat-shocked bacterial suspensions, to confirm that spores were formed for all of 11 strains. Further, since the bacteria were not stained by Gram staining, it was reconfirmed that spores were formed.
(§4) After confirming the spore formation, the bacterial cells were collected by a bacteria spreader, suspended in 10 mL of sterilized distilled water, and then centrifuged (8340×g, 4° C., 15 min). The supernatant was removed and thereafter the bacterial cells were washed twice with 10 mL of sterilized water. After washing, the bacterial cells were suspended in 5 mL of sterilized water, and the suspension was filtrated by sterilized Kimwipes. The filtrate was centrifuged (8340×g, 4° C., 15 min) to remove the supernatant, and the rest was adjusted to the turbidity (at 630 nm) of 1.0 with sterilized water.
(§5) After dissolving with stirring using a stirring rod with a propeller, filtration sterilization (0.45 μm filter) was conducted to prepare each 600 ppm-solution.
(§6) Five hundred (500) μL of each solution and 500 μL of each bacterial spore suspension were mixed. […] Defining the time point of mixing as the reaction initiation (0 min), and continuing shaking (150 rpm) at 37° C., the turbidity (630 nm) was measured at 10, 20, 30, 40, 50, 60, 90, 120, and 180 min after the reaction initiation.
(§7) Since the turbidity at 630 nm decreases by germination of spores, it has been known that the turbidity at 630 nm can be used to determine the germination rate.

[2] = system: Bacillus amyloliquefaciens (NBRC 3032); assay: as above; assay type: cell-based; conditions: 300 ppm; for turbidity (630 nm): 37° C., 150 rpm; for germination confirmed by turbidity decrease: up to 180 min
Method: as §1, §2, §3, §4, §5, §6, §7

[3] = system: Aeribacillus pallidus TK6004 (FERM BP-08597); assay: as above; assay type: cell-based; conditions: 300 ppm; for turbidity (630 nm): 37° C., 150 rpm; for germination confirmed by turbidity decrease: up to 180 min
Method: as §1, §2, §3, §4, §5, §6, §7

[4] = system: Geobacillus stearothermophilus (NBRC 13737); assay: as above; assay type: cell-based; conditions: 300 ppm; for turbidity (630 nm): 37° C., 150 rpm; for germination confirmed by turbidity decrease: up to 180 min
Method: as §1, §2, §3, §4, §5, §6, §7

[5] = system: C-3102 strain; assay: Long time culture of spore suspension with inducer, turbidity up to 24 hours (proliferation check, Example 4); assay type: cell-based, Bacillus subtilis; conditions: 500 μL spore suspension + 500 μL of 600 ppm solution
Method: This Example is an experiment to examine whether proliferation is recognizable or not, when ferulic acid or vanillic acid is mixed with a spore suspension of the C-3102 strain and cultured for a long time period.
The C-3102 strain was cultured on a nutrient plate at 37° C. for 3 days, and thereafter bacterial cells were collected by a bacteria spreader and a spore suspension was prepared similarly as in Example 1 (OD 630=1.0). After mixing 500 μL of the C-3102 spore suspension with 500 μL of a 600 ppm-ferulic acid solution, or a 600 ppm-vanillic acid solution, change in the turbidity (630 nm) up to 24 hours was examined.

[6] = 0 min after reaction initiation
[7] = 10 min after reaction initiation
[8] = 20 min after reaction initiation
[9] = 30 min after reaction initiation
[10] = 40 min after reaction initiation
[11] = 50 min after reaction initiation
[12] = 60 min after reaction initiation
[13] = 90 min after reaction initiation
[14] = 120 min after reaction initiation
[15] = 180 min after reaction initiation

Structure (SMILES): COc1cc(/C=C/C(=O)O)ccc1O [Ferulic acid, ferulic acid]
- turbidity (630 nm) [1, 6]: 0.522
- turbidity (630 nm) [1, 7]: 0.447
- turbidity (630 nm) [1, 8]: 0.400
- turbidity (630 nm) [1, 9]: 0.328
- turbidity (630 nm) [1, 10]: 0.234
- turbidity (630 nm) [1, 11]: 0.192
- turbidity (630 nm) [1, 12]: 0.133
- turbidity (630 nm) [1, 13]: 0.094
- turbidity (630 nm) [1, 14]: 0.067
- turbidity (630 nm) [1, 15]: 0.030
- germination confirmed by turbidity decrease [1]: the turbidity decreased
- turbidity (630 nm) [2, 6]: 0.526
- turbidity (630 nm) [2, 7]: 0.505
- turbidity (630 nm) [2, 8]: 0.480
- turbidity (630 nm) [2, 9]: 0.431
- turbidity (630 nm) [2, 10]: 0.397
- turbidity (630 nm) [2, 11]: 0.353
- turbidity (630 nm) [2, 12]: 0.316
- turbidity (630 nm) [2, 13]: 0.269
- turbidity (630 nm) [2, 14]: 0.245
- turbidity (630 nm) [2, 15]: 0.216
- germination confirmed by turbidity decrease [2]: the turbidity decreased
- turbidity (630 nm) [3, 6]: 0.484
- turbidity (630 nm) [3, 7]: 0.450
- turbidity (630 nm) [3, 8]: 0.393
- turbidity (630 nm) [3, 9]: 0.276
- turbidity (630 nm) [3, 10]: 0.193
- turbidity (630 nm) [3, 11]: 0.124
- turbidity (630 nm) [3, 12]: 0.080
- turbidity (630 nm) [3, 13]: 0.040
- turbidity (630 nm) [3, 14]: 0.016
- turbidity (630 nm) [3, 15]: 0.016
- germination confirmed by turbidity decrease [3]: the turbidity decreased
- turbidity (630 nm) [4, 6]: 0.560
- turbidity (630 nm) [4, 7]: 0.551
- turbidity (630 nm) [4, 8]: 0.537
- turbidity (630 nm) [4, 9]: 0.541
- turbidity (630 nm) [4, 10]: 0.489
- turbidity (630 nm) [4, 11]: 0.473
- turbidity (630 nm) [4, 12]: 0.459
- turbidity (630 nm) [4, 13]: 0.397
- turbidity (630 nm) [4, 14]: 0.326
- turbidity (630 nm) [4, 15]: 0.202
- germination confirmed by turbidity decrease [4]: the turbidity decreased
- turbidity (630 nm) ([5]; reaction time 0 hr): 0.574
- turbidity (630 nm) ([5]; reaction time 0.5 hr): 0.543
- turbidity (630 nm) ([5]; reaction time 1 hr): 0.502
- turbidity (630 nm) ([5]; reaction time 1.5 hr): 0.464
- turbidity (630 nm) ([5]; reaction time 2 hr): 0.425
- turbidity (630 nm) ([5]; reaction time 3 hr): 0.370
- turbidity (630 nm) ([5]; reaction time 24 hr): 0.178

Structure (SMILES): COc1cc(C(=O)O)ccc1O [Vanillic acid, vanillic acid]
- turbidity (630 nm) [1, 6]: 0.548
- turbidity (630 nm) [1, 7]: 0.402
- turbidity (630 nm) [1, 8]: 0.295
- turbidity (630 nm) [1, 9]: 0.221
- turbidity (630 nm) [1, 10]: 0.150
- turbidity (630 nm) [1, 11]: 0.100
- turbidity (630 nm) [1, 12]: 0.076
- turbidity (630 nm) [1, 13]: 0.047
- turbidity (630 nm) [1, 14]: 0.021
- turbidity (630 nm) [1, 15]: 0.018
- germination confirmed by turbidity decrease [1]: the turbidity decreased
- turbidity (630 nm) [2, 6]: 0.519
- turbidity (630 nm) [2, 7]: 0.496
- turbidity (630 nm) [2, 8]: 0.485
- turbidity (630 nm) [2, 9]: 0.435
- turbidity (630 nm) [2, 10]: 0.385
- turbidity (630 nm) [2, 11]: 0.359
- turbidity (630 nm) [2, 12]: 0.316
- turbidity (630 nm) [2, 13]: 0.278
- turbidity (630 nm) [2, 14]: 0.237
- turbidity (630 nm) [2, 15]: 0.210
- germination confirmed by turbidity decrease [2]: the turbidity decreased
- turbidity (630 nm) [3, 6]: 0.482
- turbidity (630 nm) [3, 7]: 0.444
- turbidity (630 nm) [3, 8]: 0.348
- turbidity (630 nm) [3, 9]: 0.243
- turbidity (630 nm) [3, 10]: 0.158
- turbidity (630 nm) [3, 11]: 0.103
- turbidity (630 nm) [3, 12]: 0.067
- turbidity (630 nm) [3, 13]: 0.026
- turbidity (630 nm) [3, 14]: 0.010
- turbidity (630 nm) [3, 15]: 0.000
- germination confirmed by turbidity decrease [3]: the turbidity decreased
- turbidity (630 nm) [4, 6]: 0.584
- turbidity (630 nm) [4, 7]: 0.590
- turbidity (630 nm) [4, 8]: 0.531
- turbidity (630 nm) [4, 9]: 0.510
- turbidity (630 nm) [4, 10]: 0.467
- turbidity (630 nm) [4, 11]: 0.445
- turbidity (630 nm) [4, 12]: 0.402
- turbidity (630 nm) [4, 13]: 0.291
- turbidity (630 nm) [4, 14]: 0.209
- turbidity (630 nm) [4, 15]: 0.099
- germination confirmed by turbidity decrease [4]: the turbidity decreased
- turbidity (630 nm) ([5]; reaction time 0 hr): 0.575
- turbidity (630 nm) ([5]; reaction time 0.5 hr): 0.540
- turbidity (630 nm) ([5]; reaction time 1 hr): 0.481
- turbidity (630 nm) ([5]; reaction time 1.5 hr): 0.426
- turbidity (630 nm) ([5]; reaction time 2 hr): 0.380
- turbidity (630 nm) ([5]; reaction time 3 hr): 0.316
- turbidity (630 nm) ([5]; reaction time 24 hr): 0.060
